In patent US7999132B2, “Anthranilic acid derivative or salt thereof” (Toyama Chemical Co., Ltd., priority 2004, dated 2011):

Legend:
DBA/1J mice = assay: Type II Collagen-induced Arthritis in Mice; format: in vivo; settings: 30 mg/kg orally once a day from the 21st day to the 35th day, male DBA/1J mice
Experimental: Type II Collagen-induced Arthritis in Mice
Eight-week old male DBA/1J mice were used (Charles River Laboratories Japan Inc.). 4 mg/mL bovine type II collagen (Collagen Gijutsu Kenshukai) dissolved in 0.01 mol/L of acetic acid aqueous solution and an equal amount of Freund's complete adjuvant (Chondorex) containing 1 mg/mL of killed tuberculosis bacillus were added to prepare an emulsion, and 0.1 mL thereof was intradermally injected at the base of tail. Similar treatment was conducted on the 21st day to cause arthritis. The test compound was suspended in 0.5% methylcellulose aqueous solution, and 30 mg/kg was orally administered once a day from the 21st day to the 35th day. In the control group, 0.5% methylcellulose aqueous solution was administered in the same manner. The severity of arthritis was estimated by scoring at zero point for an animal without change; one point for an animal with swelling at the one or two finger joint or light swelling only at the carpal or tarsal joint; two points for an animal with severe swelling at the carpal or tarsal joint or with swelling at three or more finger joints; three points for an animal with severe swelling along the whole foreleg or hindleg and thus counting 12 points at the maximum for the four limbs as arthritis score. […] The inhibitory rate was determined by the following expression. […]

MMP-13 = MMP-13 Production Inhibition Test; format: cell-based, human; settings: Homo sapiens; 30 μmol/L; SW1353 cells stimulated with IL-1β 10 ng/mL; MMP-13 in culture supernatant by ELISA 16 hours after stimulation; read-out: Inhibition rate (%) at 30 μmol/L
Experimental: MMP-13 Production Inhibition Test
6.8×10^3 human cartilage derived cell line SW1353 cells were suspended in 100 μL of Dulbecco modified Eagle's medium supplemented with 10% fetal calf serum, plated on 96-well plates and cultured for 3 days. After the culture medium was changed to Dulbecco modified Eagle's medium containing 0.2% lactalbumin hydrolysate and the cells were cultured for 6 hours, […] were added and then IL-1β was added to obtain the final concentration of 10 ng/mL 1 hour later. 16 hours after the stimulation, supernatant was collected and the amount of MMP-13 in the culture supernatant was determined with an ELISA kit (Amersham). The inhibition rate was calculated from the amount of MMP-13 in the presence of a test compound assuming that the amount of MMP-13 was 100% in the absence of the test compound.

O=C(Nc1cc(CCc2ccccc2)ccc1C(=O)O)c1ccccc1 [Example 25, 2-(benzamido)-4-phenethylbenzoic acid]
inhibitory action on bone destruction (bone destruction score) (DBA/1J mice; X-ray of the four limbs on the 36th day): exhibited inhibitory action | inhibitory action on arthritis (arthritis score) (DBA/1J mice): exhibited inhibitory action | inhibition at 30 µM (MMP-13): 86%
